One test deals with T1, human MPO (Homo sapiens, UniProt P05164).
T1 construct: purchased Sigma-Aldrich
Description: Myeloperoxidase (MPO) activity assay with tetramethyl benzidine (TMB) substrate. In kind it is biochemical. Conditions: for Ki: 50 mM sodium acetate buffer pH 5.6, read-out: Ki (inhibitory values of MPO). An excerpt:
Various methods of measuring a reduction in MPO activity are known to those of ordinary skill in the art and can be used in accordance with the present invention. For example, in one embodiment, MPO activity can be measured by combining an amount of an MPO enzyme, or a sample containing an MPO enzyme, with H2O2, a tetramethyl benzidine (TMB) substrate, and an MPO inhibitor (e.g., a compound of the present invention), and then measuring the optical density of the resulting product.
Typically, the reaction mixture (200 μl) contained 20 mU human MPO (Sigma-Aldrich, St. Louis, Mo.), 400 nmol H2O2, 1.6 μmol of TMB, and varying concentrations of methylenedioxyphenyl ferulate (Formula (II)) or ferulylproline (Formula (XVI)).
The reaction was performed in a volume of 200 μl with 50 mM sodium acetate buffer at pH 5.6. The reaction was initiated by adding MPO and the optical density of the product formed was then read at 650 nm in a microplate reader at various time points.

For test [1], the system named is human low-density lipoprotein (LDL). Description: Cu (II) induced LDL oxidation, conjugated diene formation at 234 nm. Format: biochemical. As to conditions: 10 and 25 μM compound, 100 μg LDL protein, 5 μM Cu (II), pH 7.4, room temperature (FIG. 6). The procedure: To determine the effect of the presently-disclosed compounds on low-density lipoprotein (LDL) oxidation, standard LDL oxidation reactions were carried out in the presence of methylenedioxyphenyl ferulate (FMDP; Formula (II)) and ferulylproline (Formula (XVI). Briefly, the in vitro oxidation reaction of LDL was carried out at room temperature in potassium phosphate buffer, pH 7.4. The reaction mixture contained 100 μg LDL protein and 5 μM Cu (II) with a final volume of 1 mL. The oxidation of LDL was followed by measuring the formation of a conjugated diene at 234 nm for a total of 300 min using a spectrophotometer. The time course of Cu (II) induced LDL oxidation was then performed. […] The increase in the oxidation of LDL in presence of 10 μM and 25 μM ferulylproline was attributed to the formation of Cu (II)-ferulylproline complex which would act as a pro-oxidant of LDL. Oxidation of LDL lipid by Cu (II) mediated oxidation both in the absence of any inhibitor and in the presence of 10 μM and 25 μM of methylenedioxyphenyl ferulate and ferulylproline was performed by monitoring the oxidation for 200 minutes.

In the next test the target is T2, MPO (Homo sapiens, UniProt P05164).
T2 sequence (P05164 49-745): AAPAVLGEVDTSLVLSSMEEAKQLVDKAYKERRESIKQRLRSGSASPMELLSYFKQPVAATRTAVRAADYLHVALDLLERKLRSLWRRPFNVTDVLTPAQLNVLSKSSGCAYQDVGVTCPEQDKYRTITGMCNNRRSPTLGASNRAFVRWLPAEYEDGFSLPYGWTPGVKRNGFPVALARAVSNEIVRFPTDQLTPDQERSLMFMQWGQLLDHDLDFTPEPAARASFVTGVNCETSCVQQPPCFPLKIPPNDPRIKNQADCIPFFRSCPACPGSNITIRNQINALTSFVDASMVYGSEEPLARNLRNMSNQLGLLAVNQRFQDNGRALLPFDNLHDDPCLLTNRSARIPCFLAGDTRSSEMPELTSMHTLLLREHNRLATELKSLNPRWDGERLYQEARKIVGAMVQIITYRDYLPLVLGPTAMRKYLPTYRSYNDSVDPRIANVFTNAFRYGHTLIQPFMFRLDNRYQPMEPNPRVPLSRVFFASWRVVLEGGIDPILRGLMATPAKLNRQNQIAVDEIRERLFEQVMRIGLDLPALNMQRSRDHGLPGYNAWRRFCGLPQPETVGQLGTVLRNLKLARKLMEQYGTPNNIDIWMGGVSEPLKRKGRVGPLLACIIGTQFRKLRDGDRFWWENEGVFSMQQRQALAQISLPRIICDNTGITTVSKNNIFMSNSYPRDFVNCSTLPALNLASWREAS
Description: Analysis of whether the compounds act as MPO substrates (UV-Visible spectrum, TLC). Format: biochemical. The procedure:
It is known that MPO acts on a variety of substrates and, as such, it was thought that it may be theoretically possible that methylenedioxyphenyl ferulate (Formula (II)) and ferulylproline (Formula (XVI)) could be acting as MPO substrates and competitively masking the formation of products from the added substrates in the above-described experiments. […] In these experiments, a reaction mixture was produced that contained 720 μL of sodium acetate buffer, 100 μL of 100 mM H2O2, 100 μL of MPO enzyme with added compounds of the present invention, and a total volume made up to 1 mL. Upon analysis of this reaction mixture, however, there was no indication of any colored product even when the reaction mixture contained only the inhibitor and not the MPO substrate. To strengthen this finding, thin layer chromatography (TLC) was run with the MPO assay solution and inhibitor (50% ethylacetate:hexane) and spot identification was done in an iodine chamber.

Test [2] can be described thus: Chlorotaurine formation (HOCl-mediated chlorination of taurine, TNB readout at 412 nm). Conditions: various concentrations, 37° C. for 10 min, absorption 412 nm (FIG. 8). The procedure:
Chlorotaurine is formed by the oxidation of taurine by the chlorinating oxidant hypochlorous acid (HOCl), which is formed by MPO-mediated 2-electron oxidation of chloride by H2O2. To determine if the compounds of the present invention were capable of inhibiting the formation of chlorotaurine, a reaction mixture was produced that contained 50 uL of 150 mM taurine, various concentrations of methylenedioxyphenyl ferulate (Formula (II)) or ferulylproline (Formula (XVI)), and 250 μL of hypochlorous acid in sodium phosphate buffer. The mixture was incubated at 37° C. for 10 min followed by addition of 60 μL of 40 mM thionitrobenzoic acid (TNB). The whole solution was made up to 1.5 mL and absorption was measured at 412 nm using a UV-Visible spectrophotometer. […] Furthermore, although both of these compounds react differently toward chlorotaurine oxidation, they seem to show specificity toward MPO inhibition.

Test [3] relates to xanthine/xanthine oxidase. Nature of the test: Superoxide mediated cytochrome c reduction catalyzed by xanthine/xanthine oxidase. Format: biochemical. As to conditions: different concentrations of inhibitor, 549 nm (FIG. 7). The procedure: The reaction mixture contained 250 μL of 5 mM hypoxanthine (1.25 mM final concentration), 100 μL of cytochrome c in buffer, 10 μL of xanthine oxidase enzyme and different concentrations of inhibitor. The final volume was made up to 1 mL with phosphate buffer. The oxidation was monitored by scanning wavelengths between 500 nm to 600 nm with five measurements. The cycle scanning time was 30 seconds.

The record followed here is patent US20120129818A1, “Compositions and Methods for Treatment of Cardiovascular Disease” (priority 2009, published 2012).

The term Ki denotes a measure of affinity in units of concentration, obtained from inhibition or displacement.

Turning to `COc1cc(/C=C/C(=O)N2CCCC2C(=O)O)ccc1O` (centres unmarked) [ferulylproline], the Ki at human MPO came to 4 µM. On human MPO (varying concentrations, OD 650 nm (FIGS. 4 and 5)), the “Inhibition of MPO activity” value is recorded as “significantly inhibited MPO”. Also, the “Effect on Cu (II) induced LDL oxidation” value in test [1] is recorded as “acted as a pro-oxidant reducing the lag time”. Moreover, at MPO (MPO assay solution and inhibitor, 50% ethylacetate:hexane, iodine chamber), the “Product formation during the MPO reaction by TLC / MPO substrate behaviour” value is reported as “do not act as an MPO substrate”. The “Product formation in UV-Visible spectrum between 200 to 700 nm with and without MPO” value at MPO (sodium acetate buffer, H2O2, MPO enzyme, no MPO substrate (FIGS. 9 and 10)) is reported as “failed to show any product”. Further, in test [2], the “Inhibition of chlorotaurine formation” value is “did not cause any inhibition”. In addition, the “Inhibition of superoxide mediated cytochrome c reduction” value in test [3] is “inhibited the reaction”.
`COc1cc(/C=C/C(=O)Oc2ccc3c(c2)OCO3)ccc1O` [methylenedioxyphenyl ferulate]: the Ki on human MPO was determined as 8.5 µM.
